The source of these data is ChEMBL document CHEMBL3045643, “Synthesis, crystal structure, and anticancer properties of cyclic monocarbonyl analogs of curcumin” (Med Chem Res, 2011).

Active and inactive are the calls of the source. The calls are words filed in the database; no cut-off is given here.

Data set [1] has as its system PANC-1. The data set can be described thus: Cytotoxicity against Homo sapiens (human) PANC1 cells at 0.01 to 30 uM by CCK8-based colorimetric analysis. The data set is classed as functional, cell-based.
Data set [2] concerns HCT-116. The data set can be described thus: Cytotoxicity against Homo sapiens (human) HCT116 cells at 0.01 to 30 uM by CCK8-based colorimetric analysis. Format: functional, cell-based.
Data set [3] has as its system Calu-1. The data set can be described thus: Cytotoxicity against Homo sapiens (human) Calu1 cells at 0.01 to 30 uM by CCK8-based colorimetric analysis. The data set is classed as functional, cell-based.
Data set [4] relates to ACHN. The data set can be described thus: Cytotoxicity against Homo sapiens (human) ACHN cells at 0.01 to 30 uM by CCK8-based colorimetric analysis. Format: functional, cell-based.
Another data set has as its system NCI-H460. The data set can be described thus: Cytotoxicity against Homo sapiens (human) H460 cells at 0.01 to 30 uM by CCK8-based colorimetric analysis. Format: functional, cell-based.
Data set [5] in a line: Cytotoxicity against Homo sapiens (human) […] cells at 0.01 to 30 uM by CCK8-based colorimetric analysis. The data set is classed as cell-based. Conditions: wi-38, 30 µM.
Data set [6] can be described thus: Cytotoxicity against Homo sapiens (human) H460 cells by CCK8-based colorimetric analysis. Conditions: NCI-H460. Format: functional, cell-based.
In data set [7] the test system is ACHN. In words: Cytotoxicity against Homo sapiens (human) ACHN cells by CCK8-based colorimetric analysis. The data set is classed as functional, cell-based.
The subject of data set [8] is HCT-116. In words: Cytotoxicity against Homo sapiens (human) HCT116 cells by CCK8-based colorimetric analysis. Format: functional, cell-based.
Data set [9] concerns PANC-1. The data set can be described thus: Cytotoxicity against Homo sapiens (human) PANC1 cells by CCK8-based colorimetric analysis. The data set is classed as functional, cell-based.
Data set [10] concerns Calu-1. In words: Cytotoxicity against Homo sapiens (human) Calu1 cells by CCK8-based colorimetric analysis. Format: functional, cell-based.

As to `COc1ccc(/C=C2\CN(Cc3ccccc3)C/C(=C\c3ccc(OC)cc3)C2=O)cc1`, the outcome in the data set with PANC-1 [1], in the data set on HCT-116 [2], in the data set on Calu-1 [3], with ACHN [4] and in the data set with NCI-H460 was Active. The Activity entry in [5] is reported as “Non-toxic”.

With `CCOc1ccc(/C=C2\CN(Cc3ccccc3)C/C(=C\c3ccc(OCC)cc3)C2=O)cc1`, the half-inhibitory concentration (IC50) was found to be 5.5 µM in data set [6]; 6.9 µM in the data set on ACHN [7]; 8.3 µM in the data set on HCT-116 [8]; 7.2 µM in the data set with PANC-1 [9]; 8.1 µM in the data set with Calu-1 [10]. The Activity entry in data set [5] is on record as “Non-toxic”.

For `O=C1/C(=C/c2ccccc2)CN(Cc2ccccc2)C/C1=C\c1ccccc1`, the result in the data set with PANC-1 [1], in the data set on HCT-116 [2], in the data set with Calu-1 [3], with ACHN [4] and with NCI-H460 was Active. Further, the Activity result in [5] is on record as “Non-toxic”.

For `COc1ccccc1/C=C1\C(=O)/C(=C\c2ccccc2OC)c2ccccc21`, the outcome with PANC-1 [1], in the data set on HCT-116 [2], in the data set on Calu-1 [3], with ACHN [4] and in the data set with NCI-H460 was Active. Further, in [5], the Activity result is recorded as “Non-toxic”.

For the compound `O=C1/C(=C/c2cccc(O)c2)CN(Cc2ccccc2)C/C1=C\c1cccc(O)c1`, the result with PANC-1 [1], in the data set with HCT-116 [2], in the data set on Calu-1 [3], in the data set with ACHN [4] and in the data set with NCI-H460 was Active. In data set [5], the Activity result is given as “Non-toxic”.
